Results taken from patent US20260183262A1, “RNA-BINDING MOTIF PROTEIN 39 (RBM39) DEGRADERS FOR TREATMENT OF CANCERS” (RECURSION PHARMACEUTICALS, INC., priority 2022, published 2026).

Experiments:
[1] = test system: CDK12 knockout; test: High content phenotypic CRISPR/Cas9 screen in HUVEC cells: CDK12 knockout phenocopy; format: cell-based, human; conditions: wild-type HUVEC cells; machine vision analysis
Text: (§1) As disclosed herein, numerous small molecules have been investigated for HRD deficient and PARP inhibitor resistant cancers and it was confirmed that E7820 is efficacious alone or in combination with PARP inhibitors in preclinical mouse cancer models. To select E7820 as a potential therapeutic for this disease, a high content phenotypic whole genome arrayed CRISPR/Cas9 screen was developed in HUVEC cells to identify cellular and structural changes associated between the genetic knockout of human genes. This high dimensional biological data set of single gene knockout phenotypes was then compared to the cellular and structural changes arising from the treatment of over 200,000 small molecules in intron-controlled wild-type HUVEC cells. […] RBM39 degraders, such as these aryl sulfonamides, may therefore be used to treat cancers where CDK12 is a suitable therapeutic target, for example, cancers where patients develop resistance to PARP inhibitors or cancers with HRD negative/HR-proficient tumors. Similar to depletion of CDK12, RBM39 degraders may be used to induce a synthetic lethality phenotype when combined with DDR inhibitors such as PARP inhibitors, thus enabling treatment of patients who would not derive benefit from treatment with the DDR inhibitor in the absence of an RBM39 degrader.

[2] = test system: RNA-binding motif protein 39 (RBM39) CRISPR/Cas9 knockout; test: High content phenotypic CRISPR/Cas9 screen in HUVEC cells: RBM39 knockout phenocopy; format: cell-based, human; conditions: wild-type HUVEC cells; machine vision analysis
Text: as §1

[3] = test system: OVCAR3 cells; test: CellTiter-Glo cell viability assay in OVCAR3 cell line; format: cell-based, human; conditions: 72 h
Experimental: • Cell culture: OVCAR3 is a human ovarian cancer cell line that is BRCA-proficient and HRD negative. Pharmaron in China acquired this cell line for in vitro testing. OVCAR3 human ovarian tumor cells were maintained in vitro with RPMI-1640 (Glutamax)+0.01 mg/ml insulin+20% FBS+1% PS • Cell Seeding: Cells were harvested from flask into cell culture medium and counted. Cells were diluted with culture medium for below cell densities and 8000 OVCAR cells were plated per well in a 384-well plate (PerkinElmer, Cat. #6007680), using electronic multichannel pipette in 40 μL. For the low control wells, 40 μL PBS was added. […] Plates were covered with lid and spun at 1 min/1000 rpm followed by incubation overnight at 37° C., 5% CO2. • Compound Time: SR4835 and THZ531 were dissolved at 10 mM stock solution and diluted in a 3-fold, 9-point diluted series. Cells were treated with 40 nL of SR4835 and THZ531 by plate reformat Echo550 followed by incubation at 37° C. for 72 h in a CO2 incubator. For the high control, 40 nL DMSO was added. • Readout: CellTiter-Glo@ 2.0 Reagent (Promega, G9242) was removed from the fridge and equilibrated at RT(23° C.) for 60 minutes. Plates were removed from the incubator and allowed to equilibrate to room temperature, for at least 15 minutes. 30 μL CellTiter-Glo® 2.0 Reagent was added to the assay plates and allowed to sit for 30 minutes prior to reading. Luminescence signal was read on Envision. • Calculation: Cell viability (% DMSO control) was calculated using the following equation
• Cell culture: OVCAR3 is a human ovarian cancer cell line that is BRCA-proficient and HRD negative. Pharmaron in China acquired this cell line for in vitro testing. OVCAR3 human ovarian tumor cells were maintained in vitro with RPMI-1640 (Glutamax)+0.01 mg/ml insulin+20% FBS. • Cell Seeding: Cells were harvested from flask into cell culture medium and counted. Cells were diluted with culture medium for below cell densities and 8000 OVCAR cells were plated per well in a 384-well plate (PerkinElmer, Cat. #6007680), using electronic multichannel pipette in 50 μL For the low control wells, 50 μL PBS was added. […] Cells were treated with E7820 and indisulam by plate reformat Echo software and spun 1 min/1000 rpm followed by incubation at 37° C. for 72 h in a CO2 incubator. • Readout: CellTiter-Glo@ 2.0 Reagent (Promega, G9242) was removed from the fridge and equilibrated at RT (23° C.) for 60 minutes. […] 40 μL CellTiter-Glo® 2.0 Reagent was added to the assay plates, and spun 1 min/1000 rpm, then allowed to sit for 20 minutes prior to reading. Luminescence signal was read on Envision. • Calculation: Cell viability (% DMSO control) was calculated using the following equation

[4] = target: T1, CDK12+Cyclin K (Homo sapiens, UniProt Q9NYV4); test: NanoBRET target engagement intracellular kinase assay in HEK293; format: cell-based; conditions: HEK293 cells transfected with CDK12-NanoLuc and CCNK; up to 10 μM
T1 construct: host or cells: HEK293 (transient transfection, FuGENE HD)
T1 sequence (Q9NYV4 whole entry): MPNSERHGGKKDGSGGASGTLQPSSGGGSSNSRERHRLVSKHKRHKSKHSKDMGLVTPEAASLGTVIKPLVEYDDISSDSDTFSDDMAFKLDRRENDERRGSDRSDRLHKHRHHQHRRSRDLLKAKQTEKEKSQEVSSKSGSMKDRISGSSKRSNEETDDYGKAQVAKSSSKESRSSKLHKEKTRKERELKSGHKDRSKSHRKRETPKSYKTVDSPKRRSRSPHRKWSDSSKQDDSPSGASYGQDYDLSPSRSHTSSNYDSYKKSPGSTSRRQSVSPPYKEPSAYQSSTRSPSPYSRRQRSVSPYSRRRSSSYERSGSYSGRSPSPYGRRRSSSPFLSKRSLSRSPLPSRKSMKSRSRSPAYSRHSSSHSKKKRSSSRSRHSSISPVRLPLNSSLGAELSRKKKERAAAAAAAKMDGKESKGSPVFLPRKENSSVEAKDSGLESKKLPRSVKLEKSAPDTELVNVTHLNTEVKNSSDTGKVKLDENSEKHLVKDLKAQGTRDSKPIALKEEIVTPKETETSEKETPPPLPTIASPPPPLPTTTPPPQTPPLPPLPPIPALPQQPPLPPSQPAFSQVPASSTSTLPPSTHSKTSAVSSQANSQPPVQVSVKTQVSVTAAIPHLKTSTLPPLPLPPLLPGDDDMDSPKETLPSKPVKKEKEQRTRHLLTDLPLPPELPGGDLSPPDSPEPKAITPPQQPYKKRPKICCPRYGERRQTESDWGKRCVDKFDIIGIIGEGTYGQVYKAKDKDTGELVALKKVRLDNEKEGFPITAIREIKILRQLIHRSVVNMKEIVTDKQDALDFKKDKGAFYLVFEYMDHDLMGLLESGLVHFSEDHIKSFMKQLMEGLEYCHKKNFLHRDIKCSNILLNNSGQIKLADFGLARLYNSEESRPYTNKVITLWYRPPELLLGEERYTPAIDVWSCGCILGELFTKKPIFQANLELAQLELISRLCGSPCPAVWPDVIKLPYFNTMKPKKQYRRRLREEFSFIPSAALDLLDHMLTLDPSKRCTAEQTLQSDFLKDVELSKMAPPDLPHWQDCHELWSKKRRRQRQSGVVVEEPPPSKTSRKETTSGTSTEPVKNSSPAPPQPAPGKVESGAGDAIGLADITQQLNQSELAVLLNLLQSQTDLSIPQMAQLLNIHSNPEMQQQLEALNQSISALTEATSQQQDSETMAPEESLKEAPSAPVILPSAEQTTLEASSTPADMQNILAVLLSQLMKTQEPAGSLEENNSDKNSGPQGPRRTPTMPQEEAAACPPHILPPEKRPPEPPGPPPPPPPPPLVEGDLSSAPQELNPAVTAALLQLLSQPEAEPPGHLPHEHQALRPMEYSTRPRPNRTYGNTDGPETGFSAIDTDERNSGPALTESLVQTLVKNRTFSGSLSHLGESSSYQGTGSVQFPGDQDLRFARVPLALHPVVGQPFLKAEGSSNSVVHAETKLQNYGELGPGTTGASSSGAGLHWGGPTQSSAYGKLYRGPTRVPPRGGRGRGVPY
T1 sequence (O75909 whole entry partner): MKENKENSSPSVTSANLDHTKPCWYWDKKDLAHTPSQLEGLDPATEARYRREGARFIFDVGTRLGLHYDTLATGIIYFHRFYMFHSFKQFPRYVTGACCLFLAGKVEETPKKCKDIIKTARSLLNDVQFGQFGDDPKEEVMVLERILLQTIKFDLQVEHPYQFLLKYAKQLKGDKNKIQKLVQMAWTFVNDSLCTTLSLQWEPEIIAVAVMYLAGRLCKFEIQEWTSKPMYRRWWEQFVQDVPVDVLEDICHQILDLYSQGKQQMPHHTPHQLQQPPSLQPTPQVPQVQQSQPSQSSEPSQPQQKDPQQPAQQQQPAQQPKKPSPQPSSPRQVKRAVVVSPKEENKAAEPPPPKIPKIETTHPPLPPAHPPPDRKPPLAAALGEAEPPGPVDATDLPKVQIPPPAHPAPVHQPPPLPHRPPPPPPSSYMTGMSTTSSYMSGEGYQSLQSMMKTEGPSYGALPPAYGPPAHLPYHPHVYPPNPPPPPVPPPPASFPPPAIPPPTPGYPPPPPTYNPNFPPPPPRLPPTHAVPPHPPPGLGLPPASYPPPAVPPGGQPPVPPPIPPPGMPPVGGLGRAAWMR
Experimental: • Cell culture: CDK12 NanoBRET assay kit was obtained from Reaction Biology with experiment performed by Pharmaron. HEK293 cells were cultured using 90% DMEM with 10% FBS. Cells were cultivated in T-75 flasks in a cell culture incubator set at 37° C., 5% CO^2, 95% relative humidity. Once cells reached 80-90% confluence, they were detached and split. Cultivated cells in T-75 flasks were rinsed with 5 mL PB and aspirated off. 1.5 mL trypsin was added and incubated at 37° C. for approximately 5 minutes or until the cells detached and started to float. Trypsin was inactivated by adding excess serum containing medium. • Transient Transfection of HEK293 Cells: Cell culture medium was removed from cell flask by aspiration and trypsinized, allowing cells to dissociate from flask. Trypsin was neutralized using cell culture medium and centrifuged at 200×g for 5 minutes to pellet cells. Medium was aspirated and resuspended in assay medium consisting of 99% Opti-MEM, reduced serum medium with no phenol red and 1% FBS. Density was adjusted to 2×10^5 cells/ml using assay medium. 10 μg/ml solution of DNA in Opti-MEM was prepared consisting of 9 μg/mL of CCNK, 1 ug/mL of Kinase-NanoLuc fusion vector DNA CDK12, and 1 mL of Opti-MEM. This solution was mixed thoroughly. 30 μl of FuGENE HD Transfection Reagent was added into each milliliter of DNA mixture to form lipid: DNA complex. Mixture was inverted 5-10 times and incubated at ambient temperature for 20 minutes to allow complexes to form. In a sterile, conical tub, 1 part of lipid DNA complex (1 mL) was mixed with 20 parts of HEK293 cells (20 mL) in suspension at 2×10^5 cells/mL. Tube was mixed gently by inversion 5 times. […] Lastly, 20 μL of this 3× complete substrate plus inhibitor solution was added to each well of the 384-well plate and incubated for 2-3 minutes at room temperature and read the plate on the Envision. • Calculation: BRET Ratio was calculated as follows: […]

| SMILES | phenocopy of CDK12 knockout (cellular and structural changes) [1] | phenocopy of RBM39 CRISPR/Cas9 knockout [2] | cell viability [3] | CDK12 kinase activity [4] |
| --- | --- | --- | --- | --- |
| Nc1ccc(S(=O)(=O)Nc2cnc3c(Cl)cccc3n2)cc1 [CQS] | phenocopy CDK12 loss | phenocopy RNA-binding motif protein 39 (RBM39) CRISPR/Cas9 knockout |  |  |
| Cn1cc(-n2cnc3c(NCc4nc5cc(Cl)c(Cl)cc5[nH]4)nc(N4CCOCC4)nc32)cn1 [SR4835] |  |  | dose-dependent decreases in cell viability |  |
| CN(C)C/C=C/C(=O)Nc1ccc(C(=O)N2CCC[C@@H](Nc3ncc(Cl)c(-c4c[nH]c5ccccc45)n3)C2)cc1 [THZ531] |  |  | dose-dependent decreases in cell viability | dose-dependent inhibition of kinase function |
| NS(=O)(=O)c1ccc(S(=O)(=O)Nc2cccc3c(Cl)c[nH]c23)cc1 [indisulam] | phenocopy CDK12 loss | phenocopy RNA-binding motif protein 39 (RBM39) CRISPR/Cas9 knockout | minimal effect on cell viability | does not affect CDK12 kinase activity |
| O=C(NS(=O)(=O)c1ccc(Br)s1)c1ccc(Cl)cc1Cl [tasisulam] | phenocopy CDK12 loss | phenocopy RNA-binding motif protein 39 (RBM39) CRISPR/Cas9 knockout |  |  |
